≈ marks a conversion by molar mass, not a printed value. Calls of active or inactive are those of the source. The rule behind the calls is not given here.
How the values were obtained:
[1] = system: Enterococcus faecium; assay: Antibacterial activity against Enterococcus faecium ATCC 35667 at 90 uM incubated for 24 hrs by microdilution assay; assay type: functional, organism-based
[2] = system: Klebsiella aerogenes; assay: Bactericidal activity against Enterobacter aerogenes ATCC 13048 at 90 uM incubated for 24 hrs by microdilution assay; assay type: functional
[3] = system: Enterobacter cloacae subsp. cloacae; assay: Bactericidal activity against Enterobacter cloacae ATCC 13047 at 90 uM incubated for 24 hrs by microdilution assay; assay type: functional
[4] = system: Klebsiella pneumoniae; assay: Bactericidal activity against Klebsiella pneumoniae ATCC 12657 at 90 uM incubated for 24 hrs by microdilution assay; assay type: functional, organism-based
[5] = system: Acinetobacter baumannii; assay: Bactericidal activity against Acinetobacter baumannii ATCC 17978 at 90 uM incubated for 24 hrs by microdilution assay; assay type: functional, organism-based
[6] = system: HaCaT; assay: Cytotoxicity against human HaCaT cells assessed as reduction in cell viability incubated for 4 days by CellTiter 96 aqueous one solution assay; assay type: cell-based; details: 96 h
[7] = system: Enterococcus faecium; assay: Bactericidal activity against Enterococcus faecium ATCC 35667 at 90 uM incubated for 24 hrs by microdilution assay; assay type: functional, organism-based
[8] = Selectivity ratio of IC50 for human HaCaT cells to IC50 for human HDF cells by CellTiter 96 aqueous one solution assay
[9] = system: Acinetobacter baumannii; assay: Bactericidal activity against Acinetobacter baumannii ATCC 19606 at 90 uM incubated for 24 hrs by microdilution assay; assay type: functional, organism-based; details: ATCC 19606 = CIP 70.34 = JCM 6841
[10] = system: Enterococcus faecium; assay: Bactericidal activity against Enterococcus faecium C15 at 90 uM incubated for 24 hrs by microdilution assay; assay type: functional, organism-based
[11] = system: Pseudomonas aeruginosa; assay: Antibacterial activity against Pseudomonas aeruginosa ATCC 10145 at 90 uM incubated for 24 hrs by microdilution assay; assay type: functional, organism-based
[12] = system: Enterobacter cloacae subsp. cloacae; assay: Antibacterial activity against Enterobacter cloacae ATCC 13047 at 90 uM incubated for 24 hrs by microdilution assay; assay type: functional
[13] = system: Staphylococcus aureus; assay: Antibacterial activity against Staphylococcus aureus ATCC 29247 at 90 uM incubated for 24 hrs by microdilution assay; assay type: functional, organism-based
[14] = system: Pseudomonas aeruginosa; assay: Antibacterial activity against Pseudomonas aeruginosa ATCC 49189 at 90 uM incubated for 24 hrs by microdilution assay; assay type: functional, organism-based
[15] = system: NHDF; assay: Cytotoxicity against human HDF cells assessed as reduction in cell viability incubated for 7 days by CellTiter 96 aqueous one solution assay; assay type: functional, cell-based; details: 168 h
[16] = system: Klebsiella aerogenes; assay: Antibacterial activity against Enterobacter aerogenes ATCC 13048 at 90 uM incubated for 24 hrs by microdilution assay; assay type: functional
[17] = system: Klebsiella pneumoniae; assay: Bactericidal activity against Klebsiella pneumoniae ATCC 13883 at 90 uM incubated for 24 hrs by microdilution assay; assay type: functional, organism-based
[18] = system: Staphylococcus aureus; assay: Bactericidal activity against Staphylococcus aureus ATCC 25923 at 90 uM incubated for 24 hrs by microdilution assay; assay type: functional, organism-based
[19] = system: Klebsiella pneumoniae; assay: Antibacterial activity against Klebsiella pneumoniae ATCC 12657 at 90 uM incubated for 24 hrs by microdilution assay; assay type: functional, organism-based
[20] = system: Pseudomonas aeruginosa; assay: Bactericidal activity against Pseudomonas aeruginosa ATCC 10145 at 90 uM incubated for 24 hrs by microdilution assay; assay type: functional, organism-based
[21] = system: Acinetobacter baumannii; assay: Antibacterial activity against Acinetobacter baumannii ATCC 19606 at 90 uM incubated for 24 hrs by microdilution assay; assay type: functional, organism-based; details: ATCC 19606 = CIP 70.34 = JCM 6841
[22] = system: Staphylococcus aureus; assay: Bactericidal activity against Staphylococcus aureus ATCC 29247 at 90 uM incubated for 24 hrs by microdilution assay; assay type: functional, organism-based
[23] = system: Pseudomonas aeruginosa; assay: Bactericidal activity against Pseudomonas aeruginosa ATCC 49189 at 90 uM incubated for 24 hrs by microdilution assay; assay type: functional, organism-based
[24] = system: Staphylococcus aureus; assay: Antibacterial activity against Staphylococcus aureus ATCC 25923 at 90 uM incubated for 24 hrs by microdilution assay; assay type: functional, organism-based
[25] = system: Enterococcus faecium; assay: Antibacterial activity against Enterococcus faecium C15 incubated for 24 hrs by microdilution assay; assay type: functional
[26] = system: Klebsiella pneumoniae; assay: Antibacterial activity against Klebsiella pneumoniae ATCC 13883 at 90 uM incubated for 24 hrs by microdilution assay; assay type: functional, organism-based
[27] = system: Acinetobacter baumannii; assay: Antibacterial activity against Acinetobacter baumannii ATCC 17978 at 90 uM incubated for 24 hrs by microdilution assay; assay type: functional, organism-based
[28] = system: Enterococcus faecium; assay: Bactericidal activity against Enterococcus faecium C15 incubated for 24 hrs by microdilution assay; assay type: functional; details: C15, 24 h
[29] = system: Staphylococcus aureus; assay: Antibacterial activity against Staphylococcus aureus ATCC 29247 incubated for 24 hrs by microdilution assay; assay type: functional
[30] = system: Enterococcus faecium; assay: Antibacterial activity against Enterococcus faecium ATCC 35667 incubated for 24 hrs by microdilution assay; assay type: functional
[31] = system: Enterococcus faecium; assay: Bactericidal activity against Enterococcus faecium ATCC 35667 incubated for 24 hrs by microdilution assay; assay type: functional; details: ATCC 35667, 24 h
[32] = system: Staphylococcus aureus; assay: Antibacterial activity against Staphylococcus aureus ATCC 25923 incubated for 24 hrs by microdilution assay; assay type: functional

MIC75 [25] [µM] | SMILES | Activity [2] | Activity [3] | Activity [4] | Activity [5] | IC50 [6] [µM] | Ratio IC50 [8] | Activity [9] | Activity [11] | Activity [12] | Activity [14] | IC50 [15] [µM] | Activity [16] | Activity [17] | Activity [18] | Activity [19] | Activity [20] | Activity [21] | Activity [22] | Activity [23] | also measured
84.3 (≈ 50 µg/mL) | C=C1CC[C@]2(OC1)O[C@H]1C[C@H]3[C@@H]4CC[C@H]5[C@H](O)[C@H](O)C[C@@H](O[C@@H]6O[C@H](C)[C@H](O)[C@H](O)[C@H]6O)[C@]5(C)[C@H]4CC[C@]3(C)[C@H]1[C@@H]2C | inactive | inactive | inactive | inactive | 47.4 | 3 - 11 | inactive | inactive | inactive | inactive | 16.5 | inactive | inactive | inactive | inactive | inactive | inactive | inactive | inactive | Activity [1]: inactive; Activity [7]: inactive; Activity [10]: inactive; Activity [13]: inactive; Activity [24]: inactive; Activity [26]: inactive; Activity [27]: inactive
 | COc1cccc2c1C(=O)c1c(O)c3c(c(O)c1C2=O)C[C@@](O)(C(=O)CO)C[C@@H]3O[C@H]1C[C@H](N)[C@H](O)[C@H](C)O1 [DOXORUBICIN] |  |  |  |  | 0.01 |  |  |  |  |  | 0.011 |  |  |  |  |  |  |  |  | 
21.7 (≈ 12.5 µg/mL) | C=C1CC[C@]2(OC1)O[C@H]1C[C@H]3[C@@H]4CC[C@H]5C[C@H](O)C[C@@H](O[C@@H]6O[C@H](C)[C@H](O)[C@H](O)[C@H]6O)[C@]5(C)[C@H]4CC[C@]3(C)[C@H]1[C@@H]2C | inactive | inactive | inactive | inactive | 38.9 | 3 - 11 | inactive | inactive | inactive | inactive | 8.3 | inactive | inactive | inactive | inactive | inactive | inactive | inactive | inactive | MBC [28]: 86.4 µM (≈ 49.8 µg/mL); MIC75 [29]: 21.7 µM (≈ 12.5 µg/mL); MIC75 [30]: 43.3 µM (≈ 25 µg/mL); MBC [31]: 86.4 µM (≈ 49.8 µg/mL); Activity [26]: inactive; Activity [27]: inactive; MIC75 [32]: 21.7 µM (≈ 12.5 µg/mL)
84.1 (≈ 50 µg/mL) | C[C@@H]1CC[C@]2(OC1)O[C@H]1C[C@H]3[C@@H]4CC[C@H]5[C@H](O)[C@H](O)C[C@@H](O[C@@H]6O[C@H](C)[C@H](O)[C@H](O)[C@H]6O)[C@]5(C)[C@H]4CC[C@]3(C)[C@H]1[C@@H]2C | inactive | inactive | inactive | inactive | 74.9 | 3 - 11 | inactive | inactive | inactive | inactive | 6.6 | inactive | inactive | inactive | inactive | inactive | inactive | inactive | inactive | Activity [1]: inactive; Activity [7]: inactive; Activity [10]: inactive; Activity [13]: inactive; Activity [24]: inactive; Activity [26]: inactive; Activity [27]: inactive

Source: ChEMBL document CHEMBL4414613, “Antibacterial 5α-Spirostane Saponins from the Fruit of Cordyline manners-suttoniae” (J Nat Prod, 2019)
